Entries after “also recorded” stand apart in the source; their conditions may differ.
Experiments:
LXRβ [1] = biological target: T1, LXRβ (Homo sapiens, UniProt P55055); test: SRC-1 coactivator recruitment to LXRβ, coregulator TR-FRET (CRT); assay type: biochemical; set-up: The CRT selectivity assay incorporates GST-tagged LXR-LBD; purchased Thermo Fisher Scientific PV4660; details: for LXR isoform selectivity from SRC-1 CRT: LXRβ versus LXRα
T1 sequence (P55055 222-460 limits assumed): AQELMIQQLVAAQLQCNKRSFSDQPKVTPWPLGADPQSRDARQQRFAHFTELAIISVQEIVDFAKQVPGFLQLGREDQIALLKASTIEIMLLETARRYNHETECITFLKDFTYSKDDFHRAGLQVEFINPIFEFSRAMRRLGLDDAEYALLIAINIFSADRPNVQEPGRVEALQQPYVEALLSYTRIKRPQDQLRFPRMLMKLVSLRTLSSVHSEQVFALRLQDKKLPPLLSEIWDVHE

HepG2 cells = test: Cell viability in HepG2 cells under SRE-luc conditions; assay type: cell-based, human; details: conditions of SRE-luc measurements
From the text: Figure 5. Lipogenic response of HepG2 cells to treatment with liver X receptor (LXR) ligands. […] See Figure 3—figure supplement 1 for biological replicates. […] See Figure 5—figure supplement 1 for full concentration-response curves. Figure 5—figure supplement 1. Response of HepG2 cells to treatment with liver X receptor (LXR) ligands. (A–B) Lipogenic response of HepG2 cells to treatment with liver X receptor (LXR) ligands showing full concentration-response curves for biphenyl compounds shown in Figure 5E–F. (C) Cell viability in HepG2 cells under identical conditions to those used to obtain sterol response element (SRE)-luc data. [drawing 5]

LXRα [2] = biological target: T2, LXRα (Homo sapiens, UniProt Q13133); test: SRC-1 coactivator recruitment to LXRα, coregulator TR-FRET (CRT); assay type: biochemical; set-up: The CRT selectivity assay incorporates GST-tagged LXR-LBD; purchased Thermo Fisher Scientific PV4657; details: maximal response relative to T0 (100%)
T2 sequence (Q13133 209-447 limits assumed): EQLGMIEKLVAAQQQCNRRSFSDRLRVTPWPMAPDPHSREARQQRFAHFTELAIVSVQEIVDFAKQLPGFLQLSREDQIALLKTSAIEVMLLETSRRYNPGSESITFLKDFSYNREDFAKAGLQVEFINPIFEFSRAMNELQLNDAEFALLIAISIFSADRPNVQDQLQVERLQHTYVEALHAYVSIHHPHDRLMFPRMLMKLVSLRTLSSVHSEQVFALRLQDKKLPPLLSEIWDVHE

LXRβ [3] = biological target: T1, LXRβ; test: NCOR2 corepressor binding to LXRβ, CRT; assay type: biochemical; set-up: The CRT selectivity assay incorporates GST-tagged LXR-LBD; purchased Thermo Fisher Scientific PV4660; details: for activity at 1 µM: ligand 1 µM, interpolated from concentration-response, normalized, heat map Figure 9A, read-out: NCOR2β, relative % activity at 1 μM
ABCA1 = test: ABCA1-luc reporter assay in CCF-STTG1 astrocytoma cells; assay type: cell-based, human; details: for ABCA1 induction response/phenotype in CCF cells: normalized to T0
From the text: Astrocytoma CCF-STTG1 cells, stably transfected with an ABCA1-promoter linked to a luciferase response element, provide a model for ABCA1 induction in astrocytes ([Ben Aissa et al., 2021]). […] Apparent inverse agonist activity in cell-based assays can result from ‘true’ inverse agonist recruitment of corepressors or from antagonist activity towards endogenous sterol LXR agonists. Although we use serum-stripped media, antagonism of endogenous LXR agonists cannot be ruled out.
Low passage CCF-STTG1 cells (20,000 cells/well) were seeded in 96-well plates in media containing charcoal-stripped FBS and incubated at 37 °C and 5% CO2 for 24 hr prior to a 24 hr treatment. All compounds were dissolved in DMSO, and final DMSO concentrations never exceeded 1%. After a 24 hr incubation period, add a volume of ONE-GLOEX Reagent that is equal to the volume of culture medium in each well and incubate for 3–5 min on the shaker. The luminescent activity of compounds ([…], 10-fold dilution) was examined using the ONE-GLOEX assay (Promega). […] The assays were performed in duplicates for each concentration, and the EC50 values were determined from non-linear regression analysis of the dose-response curve generated in GraphPad Prism 9.

LXRβ [4] = biological target: T1, LXRβ; test: SMRT2 corepressor binding to LXRβ, CRT; assay type: biochemical; set-up: The CRT selectivity assay incorporates GST-tagged LXR-LBD; purchased Thermo Fisher Scientific PV4660; details: ligand 1 µM, interpolated from concentration-response, normalized; heat map Figure 9A; read-out: SMRT2β, relative % activity at 1 μM
LXR [5] = test: Corepressor (NCOR2, SMRT2) binding to LXR, CRT, statements across isoforms; assay type: biochemical; details: monoplex CRT, absence of coactivator
LXRα [6] = biological target: T2, LXRα; test: NCOR2 corepressor binding to LXRα, CRT; assay type: biochemical; set-up: The CRT selectivity assay incorporates GST-tagged LXR-LBD; purchased Thermo Fisher Scientific PV4657; details: for activity at 1 µM: ligand 1 µM, interpolated from concentration-response, normalized, heat map Figure 9A, read-out: NCOR2α, relative % activity at 1 μM
[7] = test system: sterol response element (SRE); test: SRE-luc reporter assay in HepG2 cells; assay type: cell-based, human
From the text: Our phenotypic high-throughput screen (HTS) approach to identify nonlipogenic ABCA1 Inducers (NLAI) originally used counterscreening with a SREBP1c-luciferase reporter (linked to the SREBF1 gene promoter) in human hepatocarcinoma HepG2 cells ([Ben Aissa et al., 2021]). Unwanted lipogenesis is mediated by LXR agonists via direct transcriptional activation and indirectly by the effects of SREBP1c ([Schultz et al., 2000]; [Brown and Goldstein, 1997]). SREBP1c enhances transcription of genes required for synthesis of fatty acids and TG and as the dominant isoform in liver is associated most closely with lipogenesis and TG elevation ([Brown and Goldstein, 1997]). […] Binding of SREBP1c to the sterol response element (SRE) induces transcription of lipogenic genes associated with elevated TG. To better model the lipogenic axis in hepatocytes, we use HepG2 cells stably transfected with a nanoluciferase reporter downstream of a SRE promoter (SRE-luc), activation of which requires SREBP1c maturation.
HepG2 cells were cotransfected with SRE (LDLR)-NlucP SuperPiggyBac Transposon and a separate Transposase plasmid (System Biosciences). Cells were expanded for multiple passages followed by selection with puromycin (1 μg/ml). Stable cells constitutively express GFP allowed for FACS enrichment and/or cell cloning. Initially, stable pools were compared to low expressing and high expressing enriched pools. The optimal pool was selected based on assay performance (Z’) and was grown and maintained as above, with the addition of 1.0 μg/mL of puromycin biweekly.
Cells were split into flasks containing CS medium (EMEM supplemented with 10% charcoal stripped FBS (Gibco A52567-01)) and 1% P/S and grown at 37 °C /5% CO2 for 48 hr before plating. Cells were plated in 384-well, white clear tissue culture plates (Greiner 781098) and allowed to grow at 37 °C /5% CO2 for 24 hr before medium was aspirated and compound dilutions prepared in CS medium were added. Following a 24 hr incubation, the medium was aspirated, and cells were lysed/luminescence quantified using the Nano-Glo Luciferase Assay System (Promega N1130).

LXRα [8] = biological target: T2, LXRα; test: SMRT2 corepressor binding to LXRα, CRT; assay type: biochemical; set-up: The CRT selectivity assay incorporates GST-tagged LXR-LBD; purchased Thermo Fisher Scientific PV4657; details: ligand 1 µM, interpolated from concentration-response, normalized; heat map Figure 9A; read-out: SMRT2α, relative % activity at 1 μM
LXR [9] = test: Categorization of ligands by CRT/pCRT signature; assay type: biochemical; details: response at 1 µM ligand compared with theoretical signatures
From the text: With the knowledge that, in pCRT, corepressors bind to the apo-receptor; whereas coactivator binding requires a ligand-induced conformational change, we can categorize all ligands using their CRT profiles. Ligands induce three LXR conformational ensembles with CoR (destabilizing D, stabilizing S, neutral N) and only two conformations with CoA (stabilizing S, neutral N) (Figure 9 (Table 1)). In categorizing ligands based upon these CRT characteristics, labels are needed.
The category for each ligand is not always identical for LXRα vs. LXRβ. Similarly, the phenotype associated with each classification is isoform dependent. Recruitment of CoA to LXRβ by FA, WA, and PA will activate transcription; whereas, lack of recruitment by SA, HA, and RA will antagonize transcription (Figure 9 (Table 1)). Stabilization of CoA and/or destabilization of CoR bound to LXRα is a derepression mechanism leading to activation/transcription for FA, WA, and RA; whereas partial activation is expected for PA.
To determine which LXR ligands fit with these theoretical CRT signatures, concentration-response curves were interpolated to measure normalized response at 1 µM ligand concentration and plotted as a heat map (Figure 9A).

monkeys = test system: monkeys; set-up: method as in Stachel et al., 2016; details: 20 mg/kg qd p.o., 2 weeks, ref Stachel et al., 2016, cited from earlier work
[10] = test system: Tg2576 familial Alzheimer’s disease (FAD) mice; set-up: method as in Stachel et al., 2016; details: subcutaneous, 3 weeks, 50 mg/kg/day; ref Stachel et al., 2016; cited from earlier work
Hamsters = test system: Hamsters; set-up: method as in Groot et al., 2005; details: ref Groot et al., 2005; cited from earlier work
cynomolgus monkeys = test system: cynomolgus monkeys; set-up: method as in Groot et al., 2005; details: ref Groot et al., 2005; cited from earlier work

Structure (SMILES)	activity at 1 µM (LXRβ [3])	activity at 1 µM (LXRβ [4])	activity at 1 µM (LXRα [6])	activity at 1 µM (LXRα [8])	LXR isoform selectivity from SRC-1 CRT (LXRβ [1])	ABCA1 induction response/phenotype in CCF cells (ABCA1)	Corepressor (NCOR2, SMRT2) displacement or stabilization, across LXR isoforms (LXR [5])	SRE activation response/phenotype in HepG2 [7]	other results
CC(C)C(O)CC[C@@H](C)[C@H]1CC[C@H]2[C@@H]3CC=C4C[C@@H](O)CC[C@]4(C)[C@H]3CC[C@]12C (stereo partly drawn) [24HC, 24-hydroxycholesterol]	–	–	–	–	nonselective	–	–	–	Efficacy profile for SRC-1 recruitment to LXRβ (LXRβ [1]; maximal response relative to T0 (100%)): partial agonist; HepG2 cell viability/cytotoxicity (HepG2 cells): cytotoxic at higher concentrations; Efficacy profile for SRC-1 recruitment to LXRα (LXRα [2]): partial agonist
CCOC(=O)Cn1nc(C(F)(F)F)cc1-c1ccc(-c2cccc(S(C)(=O)=O)c2)cc1 [ALX101]	105%	91.1%	100%	87.3%	–	full agonist towards ABCA1 induction	less effective or ineffective in displacement of corepressors from LXRα	partial agonist of SRE activation	–
Cc1cc(C)c(S(=O)(=O)N(Cc2ccc(-c3cccc(S(C)(=O)=O)c3)cc2)Cc2ccccc2F)c(C)c1 [BE1218]	105%	81.6%	100%	91.8%	most selective LXRβ agonists	partial agonist phenotype in both cell-based assays; also recorded: partial agonist response	ineffective in corepressor displacement from LXRα	partial agonist phenotype in both cell-based assays	Selectivity for ABCA1 induction versus SRE activation (potency correlation outliers) (ABCA1; CCF ABCA1-luc versus HepG2 SRE-luc): selectivity for ABCA1 induction
COc1ccc(NC2=C(c3ccccc3)C(=O)N(Cc3ccccc3)C2=O)cc1 [GSK3987]	97.4%	84%	97.7%	69.9%	weakly selective for LXRβ	–	strong agonist responses	–	CRT/pCRT signature category (LXR [9]): FA (full agonist (FA))

Further lines, with some results ahead:

activity at 1 µM (LXRβ [3])	activity at 1 µM (LXRβ [4])	activity at 1 µM (LXRα [6])	activity at 1 µM (LXRα [8])	Structure (SMILES)	LXR isoform selectivity from SRC-1 CRT (LXRβ [1])	ABCA1 induction response/phenotype in CCF cells (ABCA1)	Corepressor (NCOR2, SMRT2) displacement or stabilization, across LXR isoforms (LXR [5])	SRE activation response/phenotype in HepG2 [7]	other results
103%	87.9%	95.1%	87.9%	CC(C)[C@@](O)(C(=O)N1CCC(C2CCN(c3ccc(C(=O)N(C)C)c(Cl)c3)CC2)CC1)C(F)(F)F [MK9, (R)–2-chloro-4-(1'-(2-hydroxy-3-methyl-2-(trifluoromethyl)butanoyl)-[4,4'-bipiperidin]–1-yl)-N,N-dimethylbenzamide]	highly LXRβ-selective; also recorded: most selective LXRβ agonists	–	less effective or ineffective in displacement of corepressors from LXRα	activates lipogenesis in HepG2 cells	Liver fat content (monkeys; relative to control): no change in liver fat content; Increase in APOE and Aβ in cerebrospinal fluid (CSF) (monkeys): threefold; ABCA1 and apoE protein levels in the brain [10]: Significant increases in ABCA1 and apoE protein levels in the brain; Plasma or liver TG [10]: not accompanied by significant changes in plasma or liver TG
103%	82%	99.8%	93.4%	C[C@H](CCOc1cccc(CC(=O)O)c1)N(Cc1cccc(C(F)(F)F)c1Cl)CC(c1ccccc1)c1ccccc1 [RGX-104]	–	–	strong agonist responses	–	Effect on NCOR2 binding to LXRβ (LXRβ [3]; monoplex CRT, absence of SRC1): displacement of NCOR2 from both LXR isoforms; Liver TG (Hamsters): significantly increased liver TG; Plasma TG, LDL-C and VLDL-C (Hamsters): dose-dependent increase; Effect on NCOR2 binding to LXRα (LXRα [6]; monoplex CRT, absence of SRC1): displacement of NCOR2 from both LXR isoforms; Plasma LDL, HDL and TG (cynomolgus monkeys): robust time-dependent increase in TG and LDL
